Consider two compounds from patent US5977442A, “Salicylic acid induced map kinase and its use for enhanced disease resistance in plants” (priority 1997, dated 1999).

In test [1] the test system is p48 SIP kinase. Put plainly: In-gel kinase activity assay (MBP substrate) in extracts of treated tobacco suspension cells: activation of p48 SIP kinase. The class given is cell-based, Nicotiana tabacum cv Xanthi nc. As for the experimental part: (§1) The cell suspension culture was derived from callus tissue originated from leaves of Nicotiana tabacum cv Xanthi nc and grown in MS medium supplemented with 1 mg/L α-naphthaleneacetic acid, 0.1 mg/L 2,4-dichlorophenoxyacetic acid, 0.1 mg/L benzyladenine, and 3% sucrose. Log phase cells were used three days after a 1:10 dilution. Treatment with H2 O2, SA and its analogues was performed in the original flasks in the dark to avoid any stresses associated with transfer. At various times, 10 mL cells (approximately 0.2 to 0.3 g fresh weight of cells) were harvested by filtration. The cells were quickly frozen in liquid nitrogen and stored at -80° C. until analysis.
Leaf discs were first ground to a fine powder in 1.5 ml microcentrifuge tubes using small plastic pestles. After adding 0.25 mL extraction buffer (100 mM Hepes, pH 7.5, 5 mM EDTA, 5 mM EGTA, 10 mM DTT, 10 mM Na3 VO4, 10 mM NaF, 50 mM β-glycerolphosphate, 1 mM phenylmethylsulfonyl fluoride, 5 μg/mL antipain, 5 μg/mL aprotinin, 5 μg/mL leupeptin, 10% glycerol, 7.5% polyvinylpolypyrrolidone), the mixture was sonicated for 15 seconds with a W-375 Sonicator (Heat System-Ultrasonics, Inc., N.Y.) fitted with a microprobe at setting 4 and 80% duty cycle. To prepare extracts from treated cells, cells were mixed with two volumes (w/v) of extraction buffer and were then sonicated twice for 15 seconds each in 1.5 mL microcentrifuge tube. After centrifugation at 13,000 rpm for 20 minutes, supernatants were transferred into clean tubes, quickly frozen in liquid nitrogen and stored at -80° C.
The in-gel kinase assay was performed as described previously (Zhang et al., 1993). Extracts containing 10 μg protein were electrophoresed on 10% SDS-polyacrylamide gels imbedded with either 1 mg/mL of casein, 1 mg/mL histone (Type III-SS, Sigma, MO), 1 mg/mL BSA, or 0.25 mg/mL of MBP in the separating gel as substrate for the kinase. After electrophoresis, SDS was removed by washing the gel with washing buffer (25 mM Tris, pH 7.5, 0.5 mM DTT, 0.1 mM Na3 VO4, 5 mM NaF, 0.5 mg/mL BSA, 0.1% Triton X-100 [v/v]). The buffer was changed three times, each for 30 minutes at room temperature. The kinases were allowed to renature in 25 mM Tris, pH 7.5, 1 mM DTT, 0.1 mM Na3 VO4, 5 mM NaF at 4° C. overnight with three changes of buffer. The gel was then incubated at room temperature in 30 mL reaction buffer (25 mM Tris, pH 7.5, 2 mM EGTA, 12 mM MgCl2, 1 mM DTT, 0.1 mM Na3 VO4) with 200 nM ATP plus 50 μCi γ-^32 P-ATP (3000 Ci/mmole) for 60 minutes. The reaction was stopped by transferring the gel into 5% TCA (w/v)/1% NaPPi (w/v). The unincorporated γ-^32 P-ATP was removed by washing in the same solution for at least 6 hours with 5 changes of buffer. The gel was dried onto 3 MM paper and exposed to Kodak XAR-5 film. Prestained size markers (Bio-Rad, CA) were used to calculate the size of the kinases. Quantitation of the relative kinase activities were done using a phosphoimager (Molecular Dynamics Inc., CA).

Test [2] has as its system 58 kDa, 52 kDa, and 40 kDa kinases. The note with it: 1 mM and 2 mM. As for the experimental part: as §1
Leaf discs were first ground to a fine powder in 1.5 ml microcentrifuge tubes using small plastic pestles. […]
The in-gel kinase assay was performed as described previously (Zhang et al., 1993). […] Quantitation of the relative kinase activities were done using a phosphoimager (Molecular Dynamics Inc., CA).

Test [3] concerns phosphotyrosine-containing 48 kDa protein. Put plainly: Immunoblot analysis with anti-phosphotyrosine antibody 4G10 of treated cell extracts. Type of test: cell-based, Nicotiana tabacum cv Xanthi nc. The following applies: 250 μM SA or 2 mM H2 O2; FIG. 4A. As for the experimental part: as §1
(§2) Protein extracts were separated by SDS-PAGE on 10% acrylamide gels, and the proteins were transferred to nitrocellulose membrane by semidry electroblotting. The membrane was blocked for 2 hours in TBS buffer (20 mM Tris, pH 7.5, 150 mM NaCl, 0.1% Tween 20, 0.1 mM Na3 VO4) with 10% BSA at room temperature, and then incubated with the phosphotyrosine-specific monoclonal antibody 4G10 (Upstate Biotechnology Incorporated, NY) in TBS buffer with BSA for 1 hr. After the blot was incubated with horseradish peroxidase-conjugated secondary antibody, the complexes were visualized using an enhanced chemiluminescence kit (DuPont, MA) following the manufacture's instructions.
For orientation: Immunoblotting shows a protein as a band on a membrane.

For test [4], the system named is 200 kDa and 75 kDa kinase activity bands. The note with it: long exposure of autoradiogram. As for the experimental part:
as §1
The in-gel kinase assay was performed as described previously (Zhang et al., 1993). Extracts containing 10 μg protein were electrophoresed on 10% SDS-polyacrylamide gels imbedded with either 1 mg/mL of casein, 1 mg/mL histone (Type III-SS, Sigma, MO), 1 mg/mL BSA, or 0.25 mg/mL of MBP in the separating gel as substrate for the kinase. After electrophoresis, SDS was removed by washing the gel with washing buffer (25 mM Tris, pH 7.5, 0.5 mM DTT, 0.1 mM Na3 VO4, 5 mM NaF, 0.5 mg/mL BSA, 0.1% Triton X-100 [v/v]). The buffer was changed three times, each for 30 minutes at room temperature. […] Quantitation of the relative kinase activities were done using a phosphoimager (Molecular Dynamics Inc., CA).

Test [5] concerns tyrosine-phosphorylated proteins. The following applies: in response to H2 O2. As for the experimental part:
as §1, §2

Test [6] has as its system kinase activities in extracts from SA-treated cells (casein, histone, or BSA as substrate). Put plainly: In-gel kinase activity assay with casein, histone or BSA as substrate in extracts of treated tobacco suspension cells. Type of test: cell-based, Nicotiana tabacum cv Xanthi nc.
The subject of test [7] is p48 SIP kinase. Put plainly: Activation of p48 SIP kinase in tobacco leaves after injection. The class given is in vivo, N. tabacum cv Xanthi nc. As for the experimental part: (§3) Tobacco plants (N. tabacum cv Xanthi nc) were grown at 22° C. in a growth room programmed for a 14-hr light cycle. Plants approximately 7-8 weeks old were used for experiments. For temperature-shift experiments, plants were transferred to a 32° C. chamber one day before inoculation. TMV strain U1 was used at a concentration of 1 μg/mL in 50 mM phosphate buffer, pH 7.0; mock inoculation was done with buffer only. After 48 hours infected plants were shifted back to 22° C. and leaf discs (1 cm in diameter) were taken at the indicated times. For water or SA treatment, one leaf from each plant was injected with solution using a syringe until the entire leaf was infiltrated.

A further test relates to 44 kDa kinase. Put plainly: Activation of 44 kDa kinase in tobacco leaves. The note with it: SA treatment of tobacco plants. The class given is in vivo, N. tabacum cv Xanthi nc. Here is the method: as §3
The test system of test [8] is the two major H2 O2 -scavenging enzymes. The following applies: Chen et al., 1993; Durner and Klessig, 1995; cited from earlier work.

Structures are written as SMILES.

`OO` [H2 O2, hydrogen peroxide]: the “activation of p48 SIP kinase by H2O2” value with p48 SIP kinase [1] (1 mM and 2 mM) is given as “induced several kinase activities including the p48 SIP kinase”. Further, in the test on p48 SIP kinase [1] (60 minutes after addition of H2 O2), the “kinase activity at 60 minutes after addition” value is “remained at peak levels”. Moreover, the “duration of SIP kinase activation relative to SA” value in the test with p48 SIP kinase [1] (tobacco suspension cells, data not shown for analogues) is “more sustained compared to that induced by SA”. Besides, in test [2], the “activation of other kinases (58, 52, 40 kDa)” value is reported as “induced several kinase activities”. Further, in test [3], the “tyrosine phosphorylation of 48 kDa protein” value is recorded as “prolonged phosphorylation of tyrosine residue(s) on a 48 kDa protein”. Further, the “weakly induced kinase activity bands at 200 kDa and 75 kDa” value in test [4] was “weakly induced”. Besides, the “number of proteins phosphorylated on tyrosine residues” value in test [5] is listed as “at least four”.

For the compound `O=C(O)c1ccccc1O` [SA, salicylic acid], the “time to peak of p48 SIP kinase activation” value in the test on p48 SIP kinase [1] (250 μM SA, tobacco suspension cells) was no more than 5 min. The “activation of 48 kDa (p48 SIP) kinase” value in the test with p48 SIP kinase [1] (250 μM, tobacco suspension cells, MBP substrate) was “activated a 48 kDa kinase”. The “reactivation of SIP kinase by second addition of SA” value with p48 SIP kinase [1] (second addition up to 4 hr after initial treatment) is “did not reactivate the SIP kinase”. Besides, the “minimum concentration of SA required to activate p48 kinase” value in the test with p48 SIP kinase [1] (tobacco suspension cells) was 100 µM. The “concentration at which maximum p48 kinase activity obtained” value in the test with p48 SIP kinase [1] (tobacco suspension cells, FIG. 1E) was 500 µM. Besides, the “increase in kinase activities with casein, histone, or BSA as substrate” value in [6] is “no increases in kinase activities were detected”. Besides, the “tyrosine phosphorylation of 48 kDa protein” value in test [3] was “transient increase in the level of a phosphotyrosine-containing 48 kDa protein”. Besides, in the test on p48 SIP kinase [7] (leaves first injected with water, then SA), the “activation of p48 SIP kinase by second injection” value is listed as “dramatic activation of the p48 SIP kinase”. For the same compound, in the test with p48 SIP kinase [7] (single injection 500 μM SA), the “activation of kinase in leaves, first (rapid) peak: return to basal level” value is given as “about 30 minutes” and the “time of second, more prolonged peak of kinase activation” value is given as “approximately 3 hours”. The “activation of p44 kinase” value with 44 kDa kinase is recorded as “also evident after SA treatment of tobacco plants”. Also, in test [8], the “inhibition of the two major H2O2-scavenging enzymes” value is recorded as “can inhibit the two major H2 O2 -scavenging enzymes”.
